From ChEMBL document CHEMBL1773047, “Antiparasitic compounds from Cupania cinerea with activities against Plasmodium falciparum and Trypanosoma brucei rhodesiense” (J Nat Prod, 2011)

Assays:
[1] = system: Trypanosoma brucei rhodesiense; experiment: Antiparasitic activity against Trypanosoma brucei rhodesiense STIB 900 bloodstream form after 72 hrs by microplate fluorimetry; assay type: functional, organism-based; settings: STIB 900, 72 h
[2] = system: Plasmodium falciparum; experiment: Antiplasmodial activity against chloroquine- and pyrimethamine-resistant Plasmodium falciparum K1 infected in human red blood cells assessed as [3H]hypoxanthine incorporation after 48 hrs by liquid scintillation counting; assay type: functional, organism-based
[3] = system: L6; experiment: Cytotoxicity against rat L6 cells after 72 hrs by microplate fluorimetry; assay type: cell-based; settings: L6, 72 h

Row | SMILES | IC50 [1] [µM] | IC50 [2] [µM] | IC50 [3] [µM]
1 | CC(=O)O[C@@H]1[C@@H](OC(C)=O)[C@H](C)O[C@@H](O[C@H]2[C@H](OC/C=C(\C)CC/C=C(\C)CC/C=C(\C)CCC=C(C)C)O[C@H](CO)[C@@H](O)[C@@H]2O)[C@@H]1OC(C)=O | 15.8 | 2.1 | 8.7
2 | CC(C)=CCCC(C)C1CC=C(C)C(O)C1O (configuration not stated) | 38.2 | > 20 | > 90
3 | CC(C)=CCC[C@H](C)[C@@H]1C=C[C@](C)(O)[C@@H](O)C1 | 61.3 | > 20 | > 90
4 | CC(C)[C@@]12CC[C@]3(C)[C@H]4CC[C@@H]5[C@@]6(C)CCC(=O)C(C)(C)[C@@H]6CC[C@@]5(C)[C@]4(C)CC[C@@]13O2 | > 90 | > 10 | > 90
5 | C=C1CC[C@@H]2O[C@]2(C)CC[C@@H]2[C@@H]1CC2(C)C | > 90 | > 25 | > 90
6 | C=C(C)[C@@H]1CC[C@]2(CO)CC[C@]3(C)[C@H](CC[C@@H]4[C@@]5(C)CCC(=O)C(C)(C)[C@@H]5CC[C@]43C)[C@@H]12 [BETULONE] | 18.9 | 3 | 22.2
7 | CC(=O)OC[C@H]1O[C@@H](OC/C=C(\C)CC/C=C(\C)CC/C=C(\C)CCC=C(C)C)[C@H](O[C@@H]2O[C@@H](C)[C@H](OC(C)=O)[C@@H](OC(C)=O)[C@H]2OC(C)=O)[C@@H](O)[C@@H]1O [CUPACINOSIDE] | 4.6 | 1.3 | 11.6
8 | CC1(C)OC(=O)CC[C@]2(C)[C@H]3CC[C@H]4[C@@](C)(CC[C@@]5(C)C(C)(C)CCC[C@]45C)O[C@]3(C)CC[C@@H]12 [CUPACINOXEPIN] | 71.6 | 8.7 | > 90
9 | CCCCCC(=O)Cc1cc(OC)cc(O)c1C(=O)Oc1cc(CC(=O)CCCCC)c(C(=O)OC)c(OC)c1 [GUSTASTATIN] | 19.4 | > 9 | > 90
10 | COc1cc(C)c2c(=O)c3c(O)cc(OC)cc3oc2c1 [LICHEXANTHONE] | > 90 | > 20 | 52.1
11 | C=C(C)[C@@H]1CC[C@]2(C)CC[C@]3(C)[C@H](CC[C@@H]4[C@@]5(C)CCC(=O)C(C)(C)[C@@H]5CC[C@]43C)[C@@H]12 [LUPENONE] | > 90 | 4.7 | > 90
12 | COc1cc2ccc(=O)oc2cc1O [SCOPOLETIN] | > 90 | > 25 | > 90
13 | CC1(C)CC[C@]2(C)CC=C3[C@]4(C)CC[C@H]5C(C)(C)[C@@H](O)CC[C@]5(C)[C@H]4CC[C@@]3(C)[C@@H]2C1 [TARAXEROL] | 10.5 | 8.5 | > 90
14 | CC1(C)CC[C@]2(C)CC=C3[C@]4(C)CC[C@H]5C(C)(C)C(=O)CC[C@]5(C)[C@H]4CC[C@@]3(C)[C@@H]2C1 [TARAXERONE] | > 90 | > 10 | > 90
